Test results taken from patent US20240409585A1, “MACROCYCLIC IMMUNOMODULATORS” (priority 2021, published 2024).
Like-named read-outs stand apart in the source and are kept apart here. Bridge positions count the residues as written; N and C are the ends. Square brackets hold non-standard residues; d marks the D form. Peptide text beside a SMILES is read from it. * marks the point of attachment. Bip(4'-NHAc) = CC(=O)Nc1ccc(-c2ccc(C[C@H](N)C(=O)O)cc2)cc1; Phe(3-CF3) = N[C@@H](Cc1cccc(C(F)(F)F)c1)C(=O)O; Phe(4-CONH2) = NC(=O)c1ccc(C[C@H](N)C(=O)O)cc1; Phe(4-COOH) = N[C@@H](Cc1ccc(C(=O)O)cc1)C(=O)O; Bip = N[C@@H](Cc1ccc(-c2ccccc2)cc1)C(=O)O; Phe(3-Cl) = N[C@@H](Cc1cccc(Cl)c1)C(=O)O; Phe(3-Me) = Cc1cccc(C[C@H](N)C(=O)O)c1; Abu(3S-NH2) = C[C@H](N)[C@H](N)C(=O)O; Val(3-OH) = CC(C)(O)[C@H](N)C(=O)O; hPhe = N[C@@H](CCc1ccccc1)C(=O)O; Cha = N[C@@H](CC1CCCCC1)C(=O)O; Carboxymethyl = O=C(O)C*; NMeA = CN[C@@H](C)C(=O)O; Nle = CCCC[C@H](N)C(=O)O; Orn = NCCC[C@H](N)C(=O)O; Dab = NCC[C@H](N)C(=O)O

Target: T1, Alexa fluor-647 labeled human PD-L1-Ig binding to Jurkat cell line over-expressing human PD-1 (Homo sapiens, UniProt Q15116)
T1 construct: expressed in transfected cells; host or cells: Jurkat
T1 sequence (Q15116 25-288): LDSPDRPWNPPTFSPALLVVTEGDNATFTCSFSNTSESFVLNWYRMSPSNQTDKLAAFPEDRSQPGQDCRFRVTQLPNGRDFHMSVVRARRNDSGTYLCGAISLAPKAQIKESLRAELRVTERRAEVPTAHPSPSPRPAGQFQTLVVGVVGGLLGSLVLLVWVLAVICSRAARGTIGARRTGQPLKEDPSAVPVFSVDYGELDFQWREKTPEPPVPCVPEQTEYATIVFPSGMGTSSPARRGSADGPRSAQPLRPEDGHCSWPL
Assay: Jurkat-PD-1 Cell Binding High-Content Screening Assay (CBA): Method 3 (Alexa fluor-647 labeled PD-L1-Ig)
Conditions: Jurkat-PD-1 cells, Alexa fluor-647 labeled PD-L1-Ig 177 nM
Method: Jurkat-PD-1 Cell Binding High-Content Screening Assay (CBA): Method 3
Alexa fluor-647 was covalently linked to the Ig epitope tag of human PD-L1-Ig and fluorescently labeled PD-L1-Ig was used for the binding studies with a Jurkat cell line over-expressing human PD-1. Briefly, 2.5×10^4 Jurkat-hPD-1 cells were seeded into 384 well plates in 20 μl of RPMI supplemented with 10% fetal calf serum. 12.5 nl of compound was added to cells followed by incubation at 37° C. for 2 hours. Then, 10 ul of Alexa fluor-647 labeled PD-L1-Ig (177 nM final), diluted in RPMI supplemented with 10% fetal calf serum was added to the cells and incubated for 1 hour. Cells were then fixed with 4% paraformaldehyde containing 10 μg/ml Hoechst 33342 and then washed 3× in 100 ul PBS and 100 ul of PBS was added in the final step. Data was collected using the Operetta High Content Imager and the data was analyzed using the columbus software.

[1] = head μM, read-out: CBA Method 3 μM

| Structure (SMILES) | IC50 [1] | IC50 (nM, read-out: CBA Method 3) |
| --- | --- | --- |
| CC(=O)Nc1ccc(-c2ccc(C[C@@H]3NC(=O)[C@H](Cc4cccc(C(F)(F)F)c4)NC(=O)[C@H](CC(=O)O)NC(=O)[C@H](Cc4ccc(C(=O)O)cc4)NC(=O)[C@H](CCN)NC(=O)CSC[C@@H](C(=O)N[C@@H](CCN)C(N)=O)NC(=O)[C@H](CCC(N)=O)NC(=O)[C@H](C(C)C)NC(=O)[C@H](CC4CCCCC4)NC(=O)[C@H](CCN)NC(=O)[C@@H](CC(C)C)NC(=O)[C@H](C)N(C)C(=O)[C@H](Cc4ccc(C(N)=O)cc4)NC(=O)[C@H](Cc4ccc(-c5ccccc5)cc4)NC3=O)cc2)cc1 [Example 5097] ({CH2CO}-[Dab][Phe(4-COOH)]D[Phe(3-CF3)][Bip(4'-NHAc)][Bip][Phe(4-CONH2)][NMeA][dL][Dab][Cha]VQC[Dab]-NH2; thioether N-14) | 0.02 µM |  |
| CC(C)C[C@H]1NC(=O)[C@H](C)N(C)C(=O)[C@H](CCC(N)=O)NC(=O)[C@H](Cc2ccc(-c3ccccc3)cc2)NC(=O)[C@H](CCc2ccccc2)NC(=O)[C@H](Cc2cccc(C(F)(F)F)c2)NC(=O)[C@H](CC(=O)O)NC(=O)[C@H](Cc2ccc(OCC(=O)O)cc2)NC(=O)[C@H](CC2CCCCC2)NC(=O)CSC[C@@H](C(=O)N[C@@H](CCN)C(N)=O)NC(=O)[C@H](CO)NC(=O)[C@H](C(C)(C)O)NC(=O)[C@H](CC2CCCCC2)NC(=O)[C@H](CCN)NC1=O [Example 5226] ({CH2CO}-[Cha]Y(Carboxymethyl)D[Phe(3-CF3)][hPhe][Bip]Q[NMeA][dL][Dab][Cha][Val(3-OH)]SC[Dab]-NH2; thioether N-14) | 0.07 µM |  |
| CC(C)C[C@H]1NC(=O)[C@H](C)N(C)C(=O)[C@H](Cc2ccc(C(N)=O)cc2)NC(=O)[C@H](Cc2ccc(-c3ccccc3)cc2)NC(=O)[C@H](Cc2ccc(C(=O)O)cc2)NC(=O)[C@H](Cc2cccc(C(F)(F)F)c2)NC(=O)[C@H](CC(=O)O)NC(=O)[C@H](Cc2ccc(C(=O)O)cc2)NC(=O)[C@H]([C@H](C)N)NC(=O)CSC[C@@H](C(=O)N[C@@H](CCN)C(N)=O)NC(=O)[C@H](CO)NC(=O)[C@H](C(C)(C)O)NC(=O)[C@H](CC2CCCCC2)NC(=O)[C@H](CCN)NC1=O [Example 5208] ({CH2CO}-[Abu(3S-NH2)][Phe(4-COOH)]D[Phe(3-CF3)][Phe(4-COOH)][Bip][Phe(4-CONH2)][NMeA][dL][Dab][Cha][Val(3-OH)]SC[Dab]-NH2; thioether N-14) |  | 0.0038 µM |
| CCCC[C@@H]1NC(=O)CSC[C@@H](C(=O)N[C@@H](CCN)C(N)=O)NC(=O)[C@H](CCCN)NC(=O)[C@H](C(C)C)NC(=O)[C@H](CC2CCCCC2)NC(=O)[C@H](CCN)NC(=O)[C@@H](CC(C)C)NC(=O)[C@H](C)N(C)C(=O)[C@H](CCC(N)=O)NC(=O)[C@H](Cc2ccc(-c3ccccc3)cc2)NC(=O)[C@H](Cc2ccc(C(=O)O)cc2)NC(=O)[C@H](Cc2cccc(C)c2)NC(=O)[C@H](CC(=O)O)NC(=O)[C@H](Cc2ccc(OCC(=O)O)cc2)NC1=O [Example 5175] ({CH2CO}-[Nle]Y(Carboxymethyl)D[Phe(3-Me)][Phe(4-COOH)][Bip]Q[NMeA][dL][Dab][Cha]V[Orn]C[Dab]-NH2; thioether N-14) | 0.01 µM |  |
| Cc1cccc(C[C@@H]2NC(=O)[C@H](CC(=O)O)NC(=O)[C@H](Cc3ccc(OCC(=O)O)cc3)NC(=O)[C@H](Cc3cccc(Cl)c3)NC(=O)CSC[C@@H](C(=O)N[C@@H](CCN)C(N)=O)NC(=O)[C@H](CCCN)NC(=O)[C@H](C(C)C)NC(=O)[C@H](CC3CCCCC3)NC(=O)[C@H](CCN)NC(=O)[C@@H](CC(C)C)NC(=O)[C@H](C)N(C)C(=O)[C@H](CCC(N)=O)NC(=O)[C@H](Cc3ccc(-c4ccccc4)cc3)NC(=O)[C@H](Cc3ccc(C(=O)O)cc3)NC2=O)c1 [Example 5286] ({CH2CO}-[Phe(3-Cl)]Y(Carboxymethyl)D[Phe(3-Me)][Phe(4-COOH)][Bip]Q[NMeA][dL][Dab][Cha]V[Orn]C[Dab]-NH2; thioether N-14) |  | 0.0018 µM |
